Assay results from patent publication US20250381149A1, “CATIONIC AMPHIPHILIC COMPOUND-BASED NANOPARTICLE COMPOSITIONS” (Universiteit Gent, priority 2022, published 2025).
Where a name gives a salt, the structure may show the parent alone.

Test: Self-assembly of CAD with DOPE (50:50) into vesicles, ethanol dilution or lipid film hydration
Assay type: physicochemical
Details: CAD:DOPE 50:50
Method: Preparation of CAD-DOPE nanoparticles. […] The lipids DOTAP (1,2-dioleoyl-3-trimethylammonium-propane) and DOPE (1,2-dioleoyl-sn-glycero-3-phosphoethanolamine) were purchased from Avanti Polar Lipids (Alabaster, USA).
For the ethanol dilution (ED) method, CADs (10 mg/ml) and DOPE (25 mg/ml) were separately dissolved in absolute ethanol. […] For the lipid film hydration method CAD (10 mg/ml) and DOPE (25 mg/ml) were dissolved in chloroform (50:50 mol ratio) and transferred to a brown glass vial, followed by chloroform evaporation under nitrogen flow. […] The classically used cationic DOTAP-DOPE liposomes (50:50 mol ratio) were likewise prepared via lipid film hydration, as previously reported in literature and diluted in HEPES buffer (pH 7.4, 20 mM) to obtain a final lipid concentration of 3.9 mM. Hydrodynamic diameter, polydispersity index (PDI) and zeta-potential of all formulations were determined via dynamic light scattering (DLS) (Zetasizer Nano, Malvern Instruments, Worcestershire, United Kingdom).

Row | vesicle formation with DOPE | SMILES
1 | did not self-assemble with DOPE | NC1=NCC2c3ccccc3Cc3ccccc3N12 (stereo not drawn) [Epinastine]
2 | did not self-assemble with DOPE | CN1CCC(=C2c3ccccc3CC(=O)c3sccc32)CC1 [Ketotifen]

Continued, compound first:

Row | SMILES | vesicle formation with DOPE
3 | CN(C)CCC=C1c2ccccc2CCc2ccccc21 [Amitriptyline hydrochloride] | successful vesicle formation
4 | CNCCCN1c2ccccc2CCc2ccccc21 [Desipramine hydrochloride] | successful vesicle formation
5 | Clc1ccc2c(c1)CCc1cccnc1C2=C1CCNCC1 [Desloratadine] | successful vesicle formation
6 | CN(C)CCCN1c2ccccc2CCc2ccccc21 [Imipramine hydrochloride] | successful vesicle formation
